Here are results for 2 compounds from patent US6740523B2 (priority 1997, dated 2004).

One test deals with HCT116 cells. The format is cell-based, human.
Test [1] has as its system σ expression in HCT116 and other CRC cell lines. Description: Northern blot of σ expression following adriamycin treatment. Format: cell-based, human. The conditions noted are these: 0.2 ug/ml adriamycin. Here is the method: (FIG. 1B) σ Expression following adriamycin treatment. Seven different CRC cell lines were treated with 0.2 ug/ml adriamycin (+) or vehicle (−) as indicated. RNA was prepared 24 hours following adriamycin treatment. Autoradiographs of Northern blots performed with σ, p21 and EF1 probes are shown. The p53 status of the respective cell lines is indicated on the top.
Northern blotting with a radiolabeled probe generated from σ cDNA was performed to confirm the SAGE results. […] Previous reports have shown that σ expression is limited to epithelial cells.
Total RNA was prepared by CsCl gradient ultracentrifugation of guanidine isothiocyanate-lysed cells as described. […].

Turning to `CN[C@H]1CCc2cc(OC)c(OC)c(OC)c2-c2ccc(OC)c(=O)cc21` [colcemid], in the test with HCT116 cells, the “effect on polyploidization of Ad-σ infected cells” value is “did not prevent this polyploidization”.

Regarding `COc1cccc2c1C(=O)c1c(O)c3c(c(O)c1C2=O)C[C@@](O)(C(=O)CO)C[C@@H]3O[C@H]1C[C@H](N)[C@H](O)[C@H](C)O1` [adriamycin], the “induction of σ expression” value in test [1] (HCT116 cells, RNA 24 hours after treatment) is given as “similarly induce σ expression”. The “σ expression in other colorectal cancer cell lines” value in test [1] (several other CRC cell lines, 24 hours) is “express σ at relatively high levels”.
